Results taken from article PMC10060004, “A Self-Immolative Linker for the pH-Responsive Release of Amides” (Molecules, 2023).

Experiments:
[1] = Stability in solution at pH 7.4 (PBS / phosphate buffer), HPLC; format: physicochemical; details: for pH 7.4, percentage of unmodified compound / pH 7.4, t1/2: pH 7.4 solution; for pH 7.4, percentage of unmodified compound: after 48 h of incubation; for pH 7.4, t1/2: time before half of the drug is degraded; for stability in solution at pH 7.4: PBS solution, pH 7.4, 48 h
Description: (§1) General procedure for release experiments. A 10 mM stock-solution of compounds 8a, 8b, 10, 15, 17, and 18 was prepared in DMSO and diluted in the corresponding buffers to obtain a 1 mM solution. In the case of compound 16, the 10 mM stock-solution was diluted in the corresponding buffer and additionally diluted with DMSO to obtain a final 0.67 mM solution in buffer/H2O/DMSO. For analysis at pH 7.4 and 6, phosphate buffers of 0.1 M were used (KH2PO4/K2HPO4). For pH 5.5 and 4.5, acetate buffer of 0.1 M was used (CH3COONa/CH3COOH). All compounds were mixed with the buffers at 25 °C and further incubated at 37 °C. HPLC analyses were carried out following the method reported in SI every 1–3 h up to 6 h and every 6 h up to 48 h.

[2] = Release experiments (hydrolysis / payload release) in acidic acetate buffer, HPLC; format: physicochemical; details: for peak intensity of the conjugate at pH 4.5: pH 4.5, HPLC
Description: as §1

[3] = Stability in plasma experiments (pooled human plasma, UV/LC-MS); format: in vitro ADME; details: for Plasma, percentage of unmodified compound: 37 °C, after 24 h of incubation; for half-life at 100 µM: pooled human plasma, pH 7.4, 37 °C, time before half of the drug is degraded, read-out: Plasma, t1/2
Description: Stability in plasma experiments. Pooled human plasma, purchased from Merck (0.9 mL, […]); hepes buffer (1.0 mL, 25 mM, NaCl 140 mM, pH 7.4); and tested compound dissolved in DMSO (100 µL, 2.0 mM) were mixed in a test tube incubated at 37 °C under continuous mechanical agitation. At set time points (0.0, 0.25, 0.50, 1.0, 3.0, 5.0, 8.0, and 24.0 h), samples of 100 µL were taken, mixed with 400 µL of cold acetonitrile, and centrifuged at 5000 rpm for 15 min. The supernatant was collected and analysed by UV/LC-MS to monitor the amount of unmodified compound. LC analyses of plasma stability tests were performed using Agilent 1100 LC/MSD VL system (G1946C) (Agilent Technologies, Palo Alto, CA, USA) constituting a vacuum solvent degassing unit, a binary high-pressure gradient pump, an 1100 series UV detector, and an 1100 MSD model VL benchtop mass spectrometer. A MSD single-quadrupole instrument was equipped with the orthogonal spray API-ES (Agilent Technologies, Palo Alto, CA, USA). The pressure of the nebulizing gas and the flow of the drying gas (nitrogen used for both) were set at 40 psi and 9 L/min, respectively. The capillary voltage, fragmentation voltage, and vaporization temperature were 3000 V, 10 V, and 350 °C, respectively. MSD was used in the positive and negative ion mode. Spectra were acquired over the scan range m/z 100–2000 using a step size of 0.1. Chromatographic analyses were performed using a Phenomenex Kinetex EVO C18-100Å (150 × 4.6 mm, 5 μm particle size) at room temperature, at a flow rate of 0.6 mL/min, injection volume of 10 μL, operating with a gradient elution of A: water (H2O) and B: acetonitrile (ACN). Both solvents were acidified with 0.1% v/v of formic acid. UV detection was monitored at 254 nm. The analysis started with 0% of B, then B was increased to 80% (from t = 0 to t = 20 min), then kept at 80% (from t = 20 to t = 25 min), and finally returned to 0% of eluent B in 5.0 min.

Stability test in water = format: physicochemical; details: for H2O, percentage of unmodified compound: after 48 h of incubation; for half-life: time before half of the drug is degraded, read-out: H2O, t1/2
Description: as §1

Compound | pH 7.4, percentage of unmodified compound [1] | pH 7.4, t1/2 [1] | drug released at pH 5.5 after 48 h ([2]; pH 5.5, after 48 h) | rate of release at pH 5.5 (qualitative) ([2]; pH 5.5, compared with the other derivatives) | Plasma, percentage of unmodified compound [3] | half-life at 100 µM [3] | H2O, percentage of unmodified compound (Stability test in water) | half-life (Stability test in water) | stability in solution at pH 7.4 [1] | peak intensity of the conjugate at pH 4.5 [2] | free Enzalutamide 9 detected at pH 4.5 ([2]; pH 4.5, 48 h, 37 °C) | amide 9 released at pH 5.5 ([2]; pH 5.5, after 48 h at 37 °C)
C#CCOc1cc(COC(=O)NS(=O)(=O)c2ccc(C)cc2)cc2c1OC(OCC)O2 (stereo not shown) [Compound 18, (2-Ethoxy-7-(prop-2-yn-1-yloxy)benzo[d][1,3]dioxol-5-yl)methyl tosylcarbamate] | 92% | > 48 h | no more than 80% | faster | 84% | > 1440 min | 99% | > 2880 min |  |  |  | 
C#CCOc1cc(COC(=O)N(C[C@H]2CN(c3ccc(N4CCOCC4)c(F)c3)C(=O)O2)C(C)=O)ccc1OCOC [Compound 8a, 4-(Methoxymethoxy)-3-(prop-2-yn-1-yloxy)benzyl (R)-acetyl((3-(3-fluoro-4-morpholino-phenyl)-2-oxooxazolidin-5-yl)methyl)carbamate] |  |  |  |  |  |  |  |  | stable | decreased |  | 
C#CCOc1cc(COC(=O)N(C[C@H]2CN(c3ccc(N4CCOCC4)c(F)c3)C(=O)O2)C(C)=O)cc2c1OC(OCC)O2 (stereo partly drawn) [Compound 15, (2-Ethoxy-7-(prop-2-yn-1-yloxy)benzo[d][1,3]dioxol-5-yl)methyl acetyl(((R)-3-(3-fluoro-4-morpholinophenyl)-2-oxooxazolidin-5-yl)methyl)carbamate] | 94% | > 48 h |  |  | 95% | > 1440 min | 99% | > 2880 min |  |  |  | 
C#CCOc1cc(COC(=O)N(C[C@@H]2CN(c3ccc(N4CCOCC4)c(F)c3)C(=O)O2)C(C)=O)ccc1OCOCCOC [Compound 8b, {[3-(3-Fluoro-4-morpholinophenyl)-2-oxo-1,3-oxazolidin-5-yl]methyl}acetylamino-{4-[(2-methoxyethoxy)methoxy]-3-(2-propynyloxy)-phenyl}methylformylate] |  |  |  |  |  |  |  |  | stable | decreased |  | 
C#CCOc1cc(COC(=O)N(C)C(=O)c2ccc(N3C(=S)N(c4ccc(C#N)c(C(F)(F)F)c4)C(=O)C3(C)C)cc2F)cc2c1OC(OCC)O2 (stereo not shown) [Compound 16, (2-Ethoxy-7-(prop-2-yn-1-yloxy)benzo[d][1,3]dioxol-5-yl)methyl (4-(3-(4-cyano-3-(trifluoromethyl)phenyl)-5,5-dimethyl-4-oxo-2-thioxoimidazolidin-1-yl)-2-fluorobenzoyl)(methyl)carbamate] | 95% | > 48 h |  |  | 89% | > 1440 min | 99% | > 2880 min |  |  |  | 
C#CCOc1cc(COC(=O)N(C)C(=O)c2ccc(N3C(=S)N(c4ccc(C#N)c(C(F)(F)F)c4)C(=O)C3(C)C)cc2F)ccc1OCOC [Compound 10, 4-(Methoxymethoxy)-3-(prop-2-yn-1-yloxy)benzyl (4-(3-(4-cyano-3-(trifluoromethyl)-phenyl)-5,5-dimethyl-4-oxo-2-thioxoimidazolidin-1-yl)-2-fluorobenzoyl)(methyl)-carbamate] |  |  |  |  |  |  |  |  | stable | decreased | 40% | only a small amount
